Values joined by “and” are separate entries in the source; they are usually repeats but may differ in a detail not shown here. Equal values may be shown once.
How the values were obtained:
Assay type in all cases: functional, Homo sapiens
[1] = tested on: TERT-RPE1; assay: (§1) Here: values are normalized to the negative (DMSO; defined as 0% autophagy induction) and positive (250nM Torin1; mTOR inhibitor; defined as maximal inducer of autophagy = 100%) control compounds and represented as % of autophagy induction. […] The impact of autophagy induction on cells is complex and depends on the affected target. As such, the magnitude of a phenotype may not be equally mirrored in the %-value of autophagy induction and vice versa. The dynamics of the induction may indicate the mode of activation: e.g. activation via phosphorylation or a signaling cascade may occur fast, while activation via transcription factors may take considerably longer. […] Of note, treatment concentrations may be sub-optimal for specific compounds, leading to false negative annotations.; conditions: Culturing Media DMEM/F12 (1:1), 1 % Penicillin/Streptomycin, 10% Fetal bovin serum Add-On: No, Screening Media Control DMEM/F12 (1:1), Screening Media Samples DMEM/F12 (1:1)
[2] = tested on: U2OS; assay: as §1; conditions: Culturing Media DMEM, 1 % Penicillin/Streptomycin, 10% Fetal bovin serum Add-On: No, Screening Media Control DMEM, Screening Media Samples DMEM
[3] = tested on: U2OS; assay: as §1; conditions: Culturing Media DMEM, 1 % Penicillin/Streptomycin, 10% Fetal bovin serum Add-On: No, Screening Media Control DMEM, Screening Media Samples DMEM; remark: listed apart in the source
[4] = Compound Concentration 0.5 uM, Timepoint 12 hours
[5] = Compound Concentration 0.5 uM, Timepoint 24 hours
[6] = Compound Concentration 0.5 uM, Timepoint 36 hours
[7] = Compound Concentration 0.5 uM, Timepoint 60 hours
[8] = Compound Concentration 2 uM, Timepoint 12 hours
[9] = Compound Concentration 2 uM, Timepoint 24 hours
[10] = Compound Concentration 2 uM, Timepoint 36 hours
[11] = Compound Concentration 2 uM, Timepoint 60 hours
[12] = Compound Concentration 10 uM, Timepoint 12 hours
[13] = Compound Concentration 10 uM, Timepoint 24 hours
[14] = Compound Concentration 10 uM, Timepoint 36 hours
[15] = Compound Concentration 10 uM, Timepoint 60 hours

Structure (SMILES) | autophagy induction [2, 4] [%] | autophagy induction [2, 5] [%] | autophagy induction [2, 6] [%] | autophagy induction [2, 7] [%] | autophagy induction [2, 8] [%] | autophagy induction [2, 9] [%] | autophagy induction [2, 10] [%] | autophagy induction [2, 11] [%] | autophagy induction [2, 12] [%] | autophagy induction [2, 13] [%] | autophagy induction [2, 14] [%] | autophagy induction [2, 15] [%] | autophagy induction [3, 4] [%] | autophagy induction [3, 5] [%] | autophagy induction [3, 6] [%] | autophagy induction [3, 7] [%] | autophagy induction [3, 8] [%] | autophagy induction [3, 9] [%] | autophagy induction [3, 10] [%] | autophagy induction [3, 11] [%] | further results
COc1ccc(CNC(=O)c2cc(-c3cncc(Cl)c3)cnc2-c2ccccn2)nc1OC [MK-1064] | 6.6807 | 0.4544 | -59.909 | -3.175 | 5.723 | -2.067 | 2463.06 | -2.86 | 2.927 | -3.704 | 1020.2 | -2.212 | 12.3622 | 4.385 | 3.479 | -7.04 | 9.573 | 2.106 | 1.004 | 0.7274 | autophagy induction ([1]; Compound Concentration 0.5 uM, Timepoint 12 hours, 12 h, 0.5 µM): -1.649% and -1.281%; autophagy induction ([1]; Compound Concentration 0.5 uM, Timepoint 24 hours, 24 h, 0.5 µM): -0.5797% and -3.213%; autophagy induction ([1]; Compound Concentration 0.5 uM, Timepoint 36 hours, 36 h, 0.5 µM): -3.034% and -3.261%; autophagy induction ([1]; Compound Concentration 0.5 uM, Timepoint 60 hours, 60 h, 0.5 µM): -3.035% and -4.321%; autophagy induction ([1]; Compound Concentration 2 uM, Timepoint 12 hours, 12 h, 2 µM): 3.536% and 7.073%; autophagy induction ([1]; Compound Concentration 2 uM, Timepoint 24 hours, 24 h, 2 µM): -0.496% and 6.728%; autophagy induction ([1]; Compound Concentration 2 uM, Timepoint 36 hours, 36 h, 2 µM): -2.12% and 5.645%; autophagy induction ([1]; Compound Concentration 2 uM, Timepoint 60 hours, 60 h, 2 µM): -0.3513% and 7.579%; autophagy induction ([1]; Compound Concentration 10 uM, Timepoint 12 hours, 12 h, 10 µM): 0.9286% and 0.4822%; autophagy induction ([1]; Compound Concentration 10 uM, Timepoint 24 hours, 24 h, 10 µM): 1.419% and 1.256%; autophagy induction ([1]; Compound Concentration 10 uM, Timepoint 36 hours, 36 h, 10 µM): 0.4472% and 1.634%; autophagy induction ([1]; Compound Concentration 10 uM, Timepoint 60 hours, 60 h, 10 µM): 0.346% and 3.096%; autophagy induction [3, 12]: 0.3207%; autophagy induction [3, 13]: -2.025%; autophagy induction [3, 14]: -1.481%; autophagy induction [3, 15]: 2.712%
Cc1cn2cc(CC(=O)N3CCC4(CC3)CN(Cc3ccc(-n5nccn5)cc3Cl)C4)nc2s1 | 1.123 | -3.762 | -1.928 | -1.19 | -4.678 | -1.951 | -1.585 | -1.336 | -3.342 | -3.411 | -3.208 | -4.891 | -19.4257 | -11.2688 | -14.8033 | -9.0407 | 2.217 | 1.46 | 0.9512 | 5.325 | autophagy induction [1, 4]: -2.947%; autophagy induction [1, 5]: -6.082%; autophagy induction [1, 6]: -10.2542%; autophagy induction [1, 7]: -15.5621%; autophagy induction [1, 8]: -4.023%; autophagy induction [1, 9]: -6.112%; autophagy induction [1, 10]: -7.965%; autophagy induction [1, 11]: -11.2776%; autophagy induction [1, 12]: 6.864%; autophagy induction [1, 13]: 5.224%; autophagy induction [1, 14]: 5.8937%; autophagy induction [1, 15]: 9.679%; autophagy induction [3, 12]: -2.971%; autophagy induction [3, 13]: 3.988%; autophagy induction [3, 14]: 2.68%; autophagy induction [3, 15]: 3.422%

Reference: ChEMBL document CHEMBL5724696, “Autophagy assay results for EUbOPEN Chemogenomics Library” (2024)
